Test results reported in US6410253B1, “Cholesterol oxidase” (priority 1990, dated 2002).

Tests used:
Type in all cases: biochemical, Brevibacterium sterolicum ATCC 21387
cholesterol oxidase II [1] = assay: Substrate specificity of cholesterol oxidase II (relative activity on sterol substrates); conditions: for Relative Activity (%) of cholesterol oxidase II on substrate: cholesterol = 100; for Substrate specificity (acts / does not act on): cholesterol oxidase II
Experimental: (§1) The amount of enzyme which catalyzes the reaction of decomposing 1 μmole of cholesterol at 37° C. for one minute in the presence of oxygen is defined as one unit. The titer is determined as follows. While shaking, the enzyme acts on cholesterol and 4-aminoantipyrine and phenol are reacted with the formed hydrogen peroxide in the presence of peroxidase to form quinonimine pigment. Absorption of the thus formed quinonimine pigment in the visible region is measured to determine the amount of hydrogen peroxide generated. Thus, the titer of the enzyme is determined. Hereafter specific activity is defined as activity per 1 mg of protein (unit/mg).
(§2) The enzyme activity is determined by reacting hydrogen peroxide generated by the enzyme with 4-aminoantipyrine and phenol in the presence of peroxidase and quantitatively determining the formed quinonimine pigment. The reaction is shown by the following equations (1) and (2). [drawing 3]
(§3) The mixture is agitated. After maintaining at 37° C. for 3 minutes, 0.2 ml of an enzyme solution is added to the mixture. While shaking, the reaction is carried out at 37° C. for 5 to 10 minutes. Then, absorbance is measured at 500 nm (OD 500 nm)

cholesterol oxidase I [2] = biological target: T1, cholesterol oxidase I (Brevibacterium sterolicum, UniProt P22637); assay: Substrate specificity of cholesterol oxidase I (relative activity on sterol substrates); conditions: cholesterol = 100
T1 sequence (P22637 46-552): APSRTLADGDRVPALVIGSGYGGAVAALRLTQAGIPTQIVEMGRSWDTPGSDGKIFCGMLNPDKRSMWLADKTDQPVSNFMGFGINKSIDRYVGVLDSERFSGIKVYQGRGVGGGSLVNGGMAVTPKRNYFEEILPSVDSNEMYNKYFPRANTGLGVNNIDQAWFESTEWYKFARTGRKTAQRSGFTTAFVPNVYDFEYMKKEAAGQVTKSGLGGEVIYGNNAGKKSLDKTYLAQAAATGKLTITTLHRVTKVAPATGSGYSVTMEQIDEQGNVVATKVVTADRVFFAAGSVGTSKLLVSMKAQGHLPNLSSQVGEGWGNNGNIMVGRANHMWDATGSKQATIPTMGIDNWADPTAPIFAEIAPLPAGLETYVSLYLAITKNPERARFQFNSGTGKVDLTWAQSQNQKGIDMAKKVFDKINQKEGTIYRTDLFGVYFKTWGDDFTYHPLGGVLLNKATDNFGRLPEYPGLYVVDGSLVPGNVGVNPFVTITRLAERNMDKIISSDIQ
Experimental: as §1, §2, §3

cholesterol oxidase I [3] = biological target: T1, cholesterol oxidase I; assay: Influence of inhibitor on cholesterol oxidase I activity; conditions: inhibitor 1 mM; activity in the absence of inhibitor = 100
Experimental: (§4) Relative activity is shown in Table 2, in the presence of an inhibitor at a concentration of 1 mM, when in the absence of the inhibitor, the activities of cholesterol oxidases I and II are regarded as 100.
as §1, with “(unit/mg). Furthermore, an amount of enzyme protein is determined by absorbance at 280 nm (1 mg/ml when absorbance is 1). […]” for “(unit/mg).”

cholesterol oxidase II [4] = assay: Influence of inhibitor on cholesterol oxidase II activity; conditions: for Inhibition of the enzyme (in words): cholesterol oxidase II; for Relative Activity (%) of cholesterol oxidase II in the presence of inhibitor: inhibitor 1 mM, activity in the absence of inhibitor = 100
Experimental: as §4
as §1, with “(unit/mg). Furthermore, an amount of enzyme protein is determined by absorbance at 280 nm (1 mg/ml when absorbance is 1).” for “(unit/mg).”
In a test tube, there are charged 1.0 ml of 3 mM cholesterol solution (which is prepared by adding 6 ml of 50 mM cholesterol ethanol solution to 94 ml of 1.05% Triton X-100 solution with stirring, heating the mixture for 10 minutes on a water bath, cooling the mixture in water, adding distilled water to the mixture until the total volume is 100 ml; and is not allowed to be used 30 minutes or longer after preparation) , 0.3 ml of 50 mM sodium bilate solution, 0.3 ml of 0.5 mM potassium-sodium phosphate buffer (pH 6.6), 0.5 ml of 42 mM phenol, 0.5 ml of 2.4 mM 4-aminoantipyrine and 0.2 ml of 115 units/ml horseradish-derived peroxidase. The mixture is agitated. After maintaining at 37° C. for 3 minutes, 0.2 ml of an enzyme solution is added to the mixture. While shaking, the reaction is carried out at 37° C. for 5 to 10 minutes. Then, absorbance is measured at 500 nm (OD 500 nm)

Row | SMILES | Relative Activity (%) of cholesterol oxidase II on substrate (cholesterol oxidase II [1]) | Relative Activity (%) of cholesterol oxidase I on substrate (cholesterol oxidase I [2]) | Relative Activity (%) of cholesterol oxidase I in the presence of inhibitor (cholesterol oxidase I [3]) | Inhibition of the enzyme (in words) (cholesterol oxidase II [4]) | Relative Activity (%) of cholesterol oxidase II in the presence of inhibitor (cholesterol oxidase II [4]) | Substrate specificity (acts / does not act on) (cholesterol oxidase II [1])
1 | CC[C@H](CC[C@@H](C)[C@H]1CC[C@H]2[C@@H]3CC=C4C[C@@H](O)CC[C@]4(C)[C@H]3CC[C@]12C)C(C)C [β-Sitosterol] | 82.0% | 19.7% | – | – | – | –
2 | O=S(=O)(O)c1cc[c]([Hg][Cl])cc1 [p-Chloromercury benzenesulfonate] | – | – | 80.0% | inhibited | 87.0% | –
3 | C[C@]12CC[C@@H](O)C[C@@H]1CC[C@@H]1[C@@H]2CC[C@]2(C)C(=O)CC[C@@H]12 [Androsterone] | 0% | 0% | – | – | – | does not act on
4 | Oc1cccc2cccnc12 [o-Hydroxyquinoline] | – | – | – | inhibited | 91.3% | –
5 | C=C1CC[C@H](O)C/C1=C/C=C1\CCC[C@]2(C)[C@@H]([C@H](C)CCCC(C)C)CC[C@@H]12 [Vitamin D3] | 0% | 0% | – | – | – | does not act on
6 | CC(C)CCC[C@@H](C)[C@H]1CC[C@H]2[C@@H]3CC=C4C[C@@H](O)CC[C@]4(C)[C@H]3CC[C@]12C [Cholesterol, 5-cholesten-3-β-ol] | 100% | 100% | – | – | – | –
7 | O=[N+]([O-])[O-].[Ag+] [AgNO3, silver nitrate] | – | – | 0% | inhibited | 1.0% | –
8 | CC(C)=CCC[C@@H](C)[C@H]1CC[C@@]2(C)C3=C(CC[C@]12C)[C@@]1(C)CC[C@H](O)C(C)(C)[C@@H]1CC3 [Lanosterol] | 0% | 0% | – | – | – | does not act on
9 | CC(=O)[C@H]1CC[C@H]2[C@@H]3CC=C4C[C@@H](O)CC[C@]4(C)[C@H]3CC[C@]12C [Pregnenolone] | 32.9% | 22.4% | – | – | – | –
10 | CCCCC/C=C\C/C=C\CCCCCCCC(=O)O[C@H]1CC[C@@]2(C)C(=CC[C@H]3[C@@H]4CC[C@H]([C@H](C)CCCC(C)C)[C@@]4(C)CC[C@@H]32)C1 [Cholesterol linoleate] | 0% | 0% | – | – | – | does not act on
11 | CC[C@H](/C=C/[C@@H](C)[C@H]1CC[C@H]2[C@@H]3CC=C4C[C@@H](O)CC[C@]4(C)[C@H]3CC[C@]12C)C(C)C [Stigmasterol] | 64.4% | 10.0% | – | – | – | –
12 | C[C@]12CC[C@H](O)CC1=CC[C@@H]1[C@@H]2CC[C@]2(C)C(=O)CC[C@@H]12 [Dehydroisoandrosterone] | 13.0% | 41.4% | – | – | – | –
13 | C[C@]12CC[C@@H]3c4ccc(O)cc4CC[C@H]3[C@@H]1CC[C@@H]2O [Estradiol] | – | 0% | – | – | – | –
